Reference: patent US9371337B2, “β-lactamase inhibitors” (The Regents of the University of California, priority 2011, dated 2016)

Molecular target: T1, Trypsin (UniProt P00760)
T1 construct: IC50 (Estimated from single concentration measurement); Ki
T1 sequence (P00760 1-246): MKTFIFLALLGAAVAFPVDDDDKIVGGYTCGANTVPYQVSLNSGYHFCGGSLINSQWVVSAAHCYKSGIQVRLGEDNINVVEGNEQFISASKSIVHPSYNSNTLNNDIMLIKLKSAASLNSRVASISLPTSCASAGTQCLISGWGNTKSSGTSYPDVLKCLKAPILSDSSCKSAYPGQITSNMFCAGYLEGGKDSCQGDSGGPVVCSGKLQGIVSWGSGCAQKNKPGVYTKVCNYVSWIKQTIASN
Test: Trypsin inhibition
Assay type: biochemical
Details: Table 4b, 100 μM inhibitor
In the case of `O=S(=O)(NCB(O)O)c1ccc(-c2nn[nH]n2)c(Cl)c1` [CR191, [3-chloro-4-(3-tetrazol-5-yl)benzensulfonylamino]methaneboronic acid], the “Percentage activity with 100 μM inhibitor” value is reported as 95.

Same assay, conditions: Table 4c, 100 μM inhibitor
With `O=S(=O)(NCB(O)O)c1ccc(-c2nn[nH]n2)c(Cl)c1` [CR191, [3-chloro-4-(3-tetrazol-5-yl)benzensulfonylamino]methaneboronic acid] the “Percentage inhibition with 100 μM inhibitor” value was 5.

Same assay, conditions: read-out: IC50 (Estimated from single concentration measurement); Table 4e
`O=S(=O)(NCB(O)O)c1ccc(-c2nn[nH]n2)c(Cl)c1` [CR191, [3-chloro-4-(3-tetrazol-5-yl)benzensulfonylamino]methaneboronic acid] showed a potency estimated from few doses of 1900 µM.

Molecular target: T2, AmpC β-lactamase (Escherichia coli, UniProt P00811)
T2 construct: made in house
T2 sequence (P00811 20-377): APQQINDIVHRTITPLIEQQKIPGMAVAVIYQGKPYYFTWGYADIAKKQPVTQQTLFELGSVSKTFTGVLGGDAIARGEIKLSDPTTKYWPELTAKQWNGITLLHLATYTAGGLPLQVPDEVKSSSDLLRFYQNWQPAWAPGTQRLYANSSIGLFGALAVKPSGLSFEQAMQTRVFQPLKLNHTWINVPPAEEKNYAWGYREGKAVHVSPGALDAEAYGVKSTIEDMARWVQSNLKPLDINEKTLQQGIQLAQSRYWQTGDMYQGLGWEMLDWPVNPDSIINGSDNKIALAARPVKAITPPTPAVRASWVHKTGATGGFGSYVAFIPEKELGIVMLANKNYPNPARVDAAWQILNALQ
Test: not given
Assay type: biochemical
Details: Lineweaver-Burk analysis, competition with substrate CENTA
In the case of `O=S(=O)(NCB(O)O)c1ccc(-c2nn[nH]n2)c(Cl)c1` [CR191, [3-chloro-4-(3-tetrazol-5-yl)benzensulfonylamino]methaneboronic acid], the type of inhibition is reported as “competitive”.

Same assay, conditions: enzyme incubation and dilution experiments
For `O=S(=O)(NCB(O)O)c1ccc(-c2nn[nH]n2)c(Cl)c1` [CR191, [3-chloro-4-(3-tetrazol-5-yl)benzensulfonylamino]methaneboronic acid], the “time dependence of inhibition (incubation effect, off-rate)” value was “slow off-rate”.

Tested on: not given
Test: not given
Details: not given
For `O=S(=O)(NCB(O)O)c1ccc(-c2nn[nH]n2)c(Cl)c1` [CR191, [3-chloro-4-(3-tetrazol-5-yl)benzensulfonylamino]methaneboronic acid], the melting point was 195 to 198 °C (dec.).

Molecular target: T3, α-chymotrypsin (bovine pancreatic) (Bos taurus, UniProt P00766)
T3 construct: purchased Sigma-Aldrich
Test: α-Chymotrypsin inhibition
Assay type: biochemical
Details: Table 4b, 100 μM inhibitor; read-out: Percentage activity with 100 μM inhibitor
Method: α-Chymotrypsin assays were performed in 50 mM Tris buffer pH 7.5 with 0.01% Triton-X. Inhibitor and 0.001 mg/mL enzyme were incubated at their final concentration for 10 min before the reaction was initiated by the addition of 200 μM N-succinyl-Ala-Ala-Pro-Phe p-nitroanilide and monitored at 410 nm.
(§1) To assess the selectivity of the new molecules we determined Ki values against three common serine proteases, Trypsin, Elastase and α-Chymotrypsin, as well as that of a class A β-lactamase, CTX-M-9 (Table 10) (Pouvreau L, et al. (1998), FEBS Lett 423:167-172; Del Mar E G, et al. (1980), Biochemistry 19:468-472; Rodriguez-Martinez J A, et al. (2009), Biotechnol Lett 31:883-887; Chen Y, et al. (2005), J Mol Biol 348:349-362).
For `O=S(=O)(NCB(O)O)c1ccc(-c2nn[nH]n2)c(Cl)c1` [CR191, [3-chloro-4-(3-tetrazol-5-yl)benzensulfonylamino]methaneboronic acid], the activity at 100 µM was 85%.

Same assay, conditions: Table 4e; read-out: IC50 (Estimated from single concentration measurement)
Compound `O=S(=O)(NCB(O)O)c1ccc(-c2nn[nH]n2)c(Cl)c1` [CR191, [3-chloro-4-(3-tetrazol-5-yl)benzensulfonylamino]methaneboronic acid] has a potency estimated from few doses of 567 µM.

Same assay, conditions: Table 10, α-Chymotrypsin
With `O=S(=O)(NCB(O)O)c1ccc(-c2nn[nH]n2)c(Cl)c1` [CR191, [3-chloro-4-(3-tetrazol-5-yl)benzensulfonylamino]methaneboronic acid] the Ki was 141 µM.

Same assay, conditions: read-out: Percentage inhibition with 100 μM inhibitor
In the case of `O=S(=O)(NCB(O)O)c1ccc(-c2nn[nH]n2)c(Cl)c1` [CR191, [3-chloro-4-(3-tetrazol-5-yl)benzensulfonylamino]methaneboronic acid], the inhibition at 100 µM is reported as 15%.

Molecular target: T1, Trypsin
Test: Trypsin inhibition
Assay type: biochemical
Details: Table 10, Trypsin
From the text: as §1
Work on `O=S(=O)(NCB(O)O)c1ccc(-c2nn[nH]n2)c(Cl)c1` [CR191, [3-chloro-4-(3-tetrazol-5-yl)benzensulfonylamino]methaneboronic acid] yielded a Ki of 350 µM.

Molecular target: T2, AmpC β-lactamase
Test: biochemical
Assay type: biochemical
Details: not given
Method: FIG. 18. Representative IC50 curves. […] IC50 curves were obtained by measuring rates (in duplicates) at different inhibitor concentrations (x-axis) and by determining the residual activity (y-axis, in percentage). IC50 values were determined by non-linear regression and Ki values calculated using GraphPad software assuming competitive inhibition.
Sulfonamidomethaneboronic acids were dissolved in 100% DMSO at a concentration of 100 mM; more diluted stocks were prepared as necessary. […] The enzyme was expressed and purified as described (Usher, K. C. et al., Biochemistry 1998, 37, 16082-16092) and CENTA was purchased from Tydock Pharma.
Kinetic measurements were run at room temperature in 50 mM sodium-cacodylate pH 6.5 in the presence of 0.01% Triton-X to prevent non-specific inhibition via compound aggregation. […] (Kettner, C. A. and Shenvi, A. B., J. Biol. Chem. 1984, 259, 15106-15114) Reactions were performed in 1 mL cuvettes with 60 μM CENTA and initiated by adding 1.2 nM enzyme. […] (Weston, G. S. et al., J. Med. Chem. 1998, 41, 4577-4586) The first 180 sec of each reaction were used to measure initial rates. IC50 values were obtained by fitting binding data to a sigmoidal dose-response equation using GraphPad Prism (GraphPad software, Inc). Ki values were determined by the use of Cheng-Prusoff equation. (Cheng, Y. and Prusoff, W. H., Biochem. Pharmacol. 1973, 22, 3099-3108)
In the case of `O=S(=O)(NCB(O)O)c1ccc(-c2nn[nH]n2)c(Cl)c1` [CR191, [3-chloro-4-(3-tetrazol-5-yl)benzensulfonylamino]methaneboronic acid], the IC50 is reported as 0.0016 µM.

Same assay, conditions: Ki
`O=S(=O)(NCB(O)O)c1ccc(-c2nn[nH]n2)c(Cl)c1` [CR191, [3-chloro-4-(3-tetrazol-5-yl)benzensulfonylamino]methaneboronic acid] showed a Ki of 0.003 µM.

Same assay, conditions: Ki (from multi- or single concentration measurements), Table 4g
`O=S(=O)(NCB(O)O)c1ccc(-c2nn[nH]n2)c(Cl)c1` [CR191, [3-chloro-4-(3-tetrazol-5-yl)benzensulfonylamino]methaneboronic acid] gave a Ki of 0.003 µM.

Same assay, conditions: Ki Vs AmpC, Table 7
Compound `O=S(=O)(NCB(O)O)c1ccc(-c2nn[nH]n2)c(Cl)c1` [CR191, [3-chloro-4-(3-tetrazol-5-yl)benzensulfonylamino]methaneboronic acid] has a Ki of 0.003 µM.

Same assay, conditions: Ki vs AmpC, Table 8
Compound `O=S(=O)(NCB(O)O)c1ccc(-c2nn[nH]n2)c(Cl)c1` [CR191, [3-chloro-4-(3-tetrazol-5-yl)benzensulfonylamino]methaneboronic acid] has a Ki of 0.003 µM.

Same assay, conditions: Ki, Table 5
For `O=S(=O)(NCB(O)O)c1ccc(-c2nn[nH]n2)c(Cl)c1` [CR191, [3-chloro-4-(3-tetrazol-5-yl)benzensulfonylamino]methaneboronic acid], the Ki was 0.003 µM.

Same assay, conditions: Ki, Table 10, AmpC
`O=S(=O)(NCB(O)O)c1ccc(-c2nn[nH]n2)c(Cl)c1` [CR191, [3-chloro-4-(3-tetrazol-5-yl)benzensulfonylamino]methaneboronic acid] gave a Ki of 0.003 µM.

Same assay, conditions: Table 5
Work on `O=S(=O)(NCB(O)O)c1ccc(-c2nn[nH]n2)c(Cl)c1` [CR191, [3-chloro-4-(3-tetrazol-5-yl)benzensulfonylamino]methaneboronic acid] yielded a Ligand efficiency of 0.57.

Molecular target: CTX-M-9 β-lactamase (Escherichia coli, UniProt Q9L5C8)
Sequence (Q9L5C8 29-291): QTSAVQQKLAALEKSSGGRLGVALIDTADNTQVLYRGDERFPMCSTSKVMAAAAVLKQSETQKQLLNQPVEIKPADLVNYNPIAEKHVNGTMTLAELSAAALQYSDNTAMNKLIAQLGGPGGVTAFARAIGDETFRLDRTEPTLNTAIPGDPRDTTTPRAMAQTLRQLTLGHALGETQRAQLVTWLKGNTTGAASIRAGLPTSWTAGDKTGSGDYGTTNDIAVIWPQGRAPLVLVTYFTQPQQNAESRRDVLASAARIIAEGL
Test: biochemical
Assay type: biochemical
Details: not given
Method: Reactions were initiated by the addition of 0.3 nM enzyme and monitored at 405 nm.
as §1
`O=S(=O)(NCB(O)O)c1ccc(-c2nn[nH]n2)c(Cl)c1` [CR191, [3-chloro-4-(3-tetrazol-5-yl)benzensulfonylamino]methaneboronic acid] showed an IC50 of 7 µM.

Same assay, conditions: Table 8; read-out: Ki vs CTX-M-9
For `O=S(=O)(NCB(O)O)c1ccc(-c2nn[nH]n2)c(Cl)c1` [CR191, [3-chloro-4-(3-tetrazol-5-yl)benzensulfonylamino]methaneboronic acid], the Ki was 2.5 µM.

Same assay, conditions: read-out: IC50 (Estimated from single concentration measurement)
In the case of `O=S(=O)(NCB(O)O)c1ccc(-c2nn[nH]n2)c(Cl)c1` [CR191, [3-chloro-4-(3-tetrazol-5-yl)benzensulfonylamino]methaneboronic acid], the potency estimated from few doses is reported as 7 µM.

Same assay, conditions: read-out: Percentage inhibition with 16 μM inhibitor
With `O=S(=O)(NCB(O)O)c1ccc(-c2nn[nH]n2)c(Cl)c1` [CR191, [3-chloro-4-(3-tetrazol-5-yl)benzensulfonylamino]methaneboronic acid] the inhibition at 16 µM was 70%.

Tested on: clinical strains resistant to third-generation cephalosporins
Test: MIC distribution of third-generation cephalosporins alone or with compounds over clinical strains
Assay type: cell-based
Details: cephalosporins combined with the compound
Method: The anti-resistance activity of inhibitors was investigated by the determination of the minimum inhibitory concentrations (MICs) of the β-lactam/inhibitor combination necessary to inhibit the growth of clinically-isolated bacteria resistant to third-generation cephalosporins via expression of class A or class C β-lactamases (Table 6).
Susceptibility testing was performed and interpreted following the guidelines of CLSI. (Clinical and Laboratory Standards Institute, Performance standards for antimicrobial susceptibility testing, 20th Informational Supplement, M100-S20 2010) The compounds were dissolved in 50% DMSO, and dilutions were performed using Muller-Hinton medium. An adequate final concentration was obtained to determine the minimum inhibitory concentrations (MICs). The concentration of DMSO was maintained below 5%. The inhibitors were tested for synergy with the third-generation β-lactams ceftazidime and cefotaxime against several clinical bacteria. The ratio of β-lactams to inhibitors was 1:4. Each value reported reflects the average of three independent experiments. […] The Friedman's test and the Wilcoxon signed rank test were used to compare MIC values. Statistical significance was established at p<0.05.
With `O=S(=O)(NCB(O)O)c1ccc(-c2nn[nH]n2)c(Cl)c1` [CR191, [3-chloro-4-(3-tetrazol-5-yl)benzensulfonylamino]methaneboronic acid] the “clinical isolates for which MICs dropped into the susceptible range (MICs≦1 μg/mL)” value was 25%.

Same assay, conditions: third-generation cephalosporins in combination with the compound
With `O=S(=O)(NCB(O)O)c1ccc(-c2nn[nH]n2)c(Cl)c1` [CR191, [3-chloro-4-(3-tetrazol-5-yl)benzensulfonylamino]methaneboronic acid] the “MIC 25% percentile” value was 1.0 µg/mL and the “MIC 75% percentile” value was 4.0 µg/mL.
